Here are results for one substance from patent US10226509B2, “Lymphangiogenesis inhibitors for cancer and for graft survival” (TUFTS UNIVERSITY, priority 2014, dated 2019).

For one assay, the system named is VEGFR-3. The experiment in a line: Affinity precipitation assay, VEGFR-3. It is filed as binding, human. As to conditions: galectin-conjugated agarose beads, LEC lysates. The protocol: Five mg of plant lectins (Vector Labs) and galectins were conjugated to 330 mg of Pierce® NHS-activated agarose dry resin in accordance with the manufacturer's instructions (Thermo Scientific). Primary LECs (Lonza) were lysed in Triton lysis buffer (20 mM Tris-HCl, pH 7.4; 150 mM NaCl; 0.5% Triton X-100 with protease inhibitor cocktail). LEC lysates (250 μg in 500 μL lysis buffer supplemented with 10 mM MgCl2) were incubated with 40 μL (50% slurry) of agarose-conjugated lectins (4° C., overnight). Beads were pelleted by centrifugation at 3000 rpm for 1 min. Non-specific binding proteins were removed by washing the beads with Triton lysis buffer once and PBS twice. Supernatants were discarded; bound proteins were eluted by boiling the beads with 20 μL of 2× Laemmli sample buffer for 7 min, and examined by western blotting.
Next, a series of examples were performed to determine whether VEGF-C-induced lymphangiogenesis is dependent on Gal-8. To determine whether VEGFR-3 is a Gal-8-binding protein, LEC lysates were incubated with Gal-8-conjugated agarose beads in the presence or absence of 0.1 M of lactose (an inhibiting sugar) or sucrose (a non-inhibiting sugar). Bound proteins were examined and were compared to total cell lysates (input) by western blot using anti-VEGFR-3 antibody. Three forms of VEGFR-3 (125 kDa, 175 kDa and 195 kDa) were detected in total cell lysates (FIG. 5A) (Bando, H., et al. 2004. Int J Cancer 111:184-191.). […] Having shown that Gal-8 binds to VEGFR-3 in LECs and that the carbohydrate-binding activity of Gal-8 is required for the synergistic effect of Gal-8 on VEGF-C-induced LEC sprouting, it was of interest to determine whether VEGFR-3 bears 3′-sialylated glycans.

For the next assay, the system named is LEC plasma membrane. Kind of assay: Immunocytochemistry / confocal microscopy of receptor clustering on LECs. It is filed as cell-based, human. The protocol: […] Cells were blocked with Image-iT® signal enhancer (30 min, 25° C., Invitrogen) and incubated with primary antibodies (rat anti-human PDPN, 1:300, BioLegend; mouse anti-human VEGFR-3, 9D9F9, 1:100, BioLegend; rabbit anti-Gal-8, H-80, 1:100, Santa Cruz Biotechnology) in 2% BSA/PBS at 4° C. overnight. The cells were then washed with 2% BSA/PBS three times and incubated with appropriate secondary antibodies (Alexa Fluor® 488 anti-mouse, 1:200, Invitrogen; Alexa Fluor® 568 anti-rabbit, 1:200, Invitrogen; Alexa Fluor 647® anti-rat, 1:300, Jackson ImmunoResearch) at 25° C. for 1 hr. Cells were washed with PBS, slides were mounted with ProLong Gold antifade reagent with DAPI (Invitrogen) and were examined with the Leica TCS SPE imaging system (Leica).
Since galectin-glycan lattices segregate the cell surface receptors into discrete domains to initiate cell signaling (Lajoie, P., et al. 2009. J Cell Biol 185:381-385), assays were performed to determine whether Gal-8 clusters PDPN and VEGFR-3 on LEC plasma membrane. LECs were treated with Gal-8 for 15 minutes, fixed, stained with anti-PDPN, VEGFR-3 and Gal-8 antibodies, and examined by confocal microscopy. In control cells, which were incubated with buffer only, both PDPN and VEGFR-3 were homogenously distributed all over the LEC and in cell borders; endogenous Gal-8 was mainly distributed in cytosol (FIG. 9A-FIG. 9D). […]

For a further assay, the system named is ERK1/2. Kind of assay: Western blot of ERK activation in primary LECs. As to conditions: 0.5 μM for 0 to 60 minutes or 0 to 0.5 μM for 30 minutes. It counts as cell-based, human. The protocol:
Primary LECs were lysed with Triton lysis buffer supplemented with protease inhibitor cocktail and Phos-STOP phosphatase inhibitor cocktail (Roche), and subjected to electrophoresis in 4-15% SDS-PAGE gels (Bio-Rad). Protein blots of the gels were blocked with 0.5×Odyssey® blocking buffer (OBB, Li-COR). For AKT and ERK signaling, blots were incubated with primary antibodies (rabbit anti-ERK1/2, 1:7500, Cell Signaling Technology; mouse anti-phospho-ERK1/2, Thr202/Tyr204, 1:2000, Cell Signaling Technology; mouse anti-AKT1/2/3, 1:2000, Cell Signaling Technology; rabbit anti-phospho-AKT, Ser473, 1:1500, Cell Signaling Technology) overnight at 4° C. Blots were washed with 0.5% Tween-20/PBS three times, and were incubated with appropriate secondary antibodies (donkey anti-rabbit IRDye 680LT and anti-mouse IRDye 800CW, Li-Cor) for 45 min at 25° C. The blots were scanned by an Odyssey® Infrared Imaging System using Image Studio v2.0 software (Li-COR). […] Signals were detected by Odyssey® Infrared Imaging System. […]
For orientation: In western blotting, separated proteins are transferred to a membrane and probed.

With “Gal-8: recombinant galectin-8, tandem-repeat type galectin with two different CRDs”, the “binding to VEGFR-3 (in words)” value in the assay with VEGFR-3 was “interacted with 125 and 195 kDa VEGFR-3 and not with 175 kDa VEGFR-3”. Moreover, the “distribution of PDPN and VEGFR-3 on LECs” value in the assay on LEC plasma membrane (Gal-8 for 15 minutes) is “caused dramatic redistribution and clustering of PDPN and VEGFR-3 on LEC plasma membrane”. The “distribution of PDPN and integrin β1 on LECs” value in the assay on LEC plasma membrane (galectin-8 for 15 minutes, no permeabilization) was “caused dramatic redistribution and clustering of PDPN and integrin β1 on LEC plasma membrane”. Besides, the “phosphorylation of ERK1/2 (in words)” value in the assay with ERK1/2 is “induced phosphorylation of AKT and ERK1/2 in time- and dose-dependent manner”.
